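Each compound was tested at five concentrations against cells in 96-well plates for 48 hours. GI50: concentration for 50% inhibition of growth.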 The source made the active and inactive calls. Rule as the data show it: active = GI50 up to about 1.1 µM and inactive = higher.
Tests used:
Experiment in all cases: DTP human tumour cell line panel, 48 h
[1] = test system: A498
[2] = test system: DU-145
[3] = test system: MDA-N
[4] = test system: NCI/ADR-RES
[5] = test system: TK-10
[6] = test system: SR
[7] = test system: NCI-H226
[8] = test system: M14
[9] = test system: PC-3
[10] = test system: ACHN
[11] = test system: MDA-MB-435
[12] = test system: MDA-MB-231
[13] = test system: T47D
[14] = test system: SF-295

Measured: GI50

CCOC(=O)C(NC(=O)Nc1ccccc1)(Nc1cccc(Cl)c1)C(F)(F)F (stereo not given)
inactive: [1] > 66.4 µM | [2] > 100 µM | [3] > 100 µM | [4] > 100 µM | [5] > 100 µM | [6] > 100 µM | [7] > 100 µM | [8] > 100 µM | [9] > 100 µM | [10] > 100 µM | [11] > 100 µM | [12] > 100 µM | [13] > 100 µM

CN(C)c1ccc(N2C(=S)SC(=N\c3ccccc3)/C2=N/c2ccccc2)cc1
inactive: [1] > 100 µM | [2] > 100 µM | [3] > 100 µM | [4] > 100 µM | [6] > 100 µM | [7] > 100 µM | [8] > 100 µM | [9] 37.8 µM | [14] > 100 µM | [11] > 100 µM | [12] > 100 µM | [13] > 100 µM

NC(=S)N/N=C1\c2ccccc2CCC1CCC1(O)CCc2ccccc2C1=O (stereo not given)
inactive: [2] 37.8 µM | [3] 25.2 µM | [4] 13.8 µM | [5] 13.6 µM | [6] 35.2 µM | [8] 16.4 µM | [9] 31 µM | [14] 23 µM | [10] 35.5 µM | [11] 20.9 µM | [12] 26.8 µM | [13] 4.04 µM

COC(=O)C1=C(OC(=O)/C=C/c2ccc(Cl)cc2)C(C(=O)OC)[C@@]2(O)[C@@H](C(=O)OC)[C@H](C)C[C@@H]1[C@@H]2C(=O)OC (stereo not given in full)
inactive: [2] 39.4 µM | [3] 10.4 µM | [4] 21.6 µM | [5] 62.8 µM | [7] 20.7 µM | [8] 23.2 µM | [9] 20.7 µM | [14] 29.4 µM | [10] 22.2 µM | [11] 14.9 µM | [12] 24.5 µM | [13] 26.1 µM

Clc1ccc(Cl)c(Nc2ccnc(SCc3ccccc3)n2)c1
inactive: [1] > 100 µM | [2] > 100 µM | [3] > 100 µM | [4] > 100 µM | [5] > 100 µM | [6] > 100 µM | [8] 70 µM | [9] > 100 µM | [14] > 100 µM | [10] > 100 µM | [11] > 100 µM | [12] > 100 µM | [13] 32.4 µM

O=[N+]([O-])c1cc(Cl)cc2cc(Cl)cnc12
inactive: [1] 48 µM | [2] > 100 µM | [4] > 100 µM | [5] > 100 µM | [6] 63.8 µM | [7] > 100 µM | [8] > 100 µM | [9] 93.5 µM | [14] > 100 µM | [10] > 100 µM | [11] > 100 µM | [12] 60.1 µM | [13] 16.4 µM

From ChEMBL document CHEMBL1201862, “PubChem BioAssay data set” (2004)
